Columns and labels:
PRMT5 [1] = target: T1, PRMT5 (Homo sapiens, UniProt O14744); experiment: PRMT5 biochemical IC50 assay with SAM as cofactor; details: PRMT5, SAM as cofactor; read-out: SAM IC50
T1 construct: purchased Viva (custom protein)

PRMT5 [2] = target: T1, PRMT5; experiment: PRMT5 biochemical IC50 assay with no cofactor; details: PRMT5, no cofactor
Source text: Table 1 indicates IC50 values (μM) against PRMT5 for exemplary compounds in the presence of SAM as cofactor, with no cofactor, and with MTA as cofactor, respectively (columns 4-6). […] Ki values can be calculated from the IC50 values as described in the Examples section. As detailed in the Examples section, for the assay performed in the presence of SAM, IC50=Ki×1.5 (Ki=IC50/1.5).

PRMT5 [3] = target: T1, PRMT5; experiment: PRMT5 biochemical IC50 assay with MTA as cofactor; details: PRMT5, MTA as cofactor; read-out: MTA IC50
[4] = test system: HAP1 MTAP-intact cell line; experiment: SDMA in-cell western assay, HAP1 MTAP-intact; format: cell-based; details: Homo sapiens, HAP1, SDMA in-cell western, HAP1 MTAP-intact; read-out: MTAP HAP1 intact IC50
Outline: (§1)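 Compounds were tested in HAP1 cells differing only in MTAP status (endogenous expression versus null). Cellular SDMA levels were then measured by in-cell western, giving an IC50 in each background.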

[5] = test system: HAP1 MTAP-deleted cell line; experiment: SDMA in-cell western assay, HAP1 MTAP-deleted; format: cell-based; details: for IC50: Homo sapiens, HAP1, SDMA in-cell western, HAP1 MTAP-deleted; for MTAP intact/deleted ratio: SDMA in-cell western
Outline: as §1

[6] = test system: HAP1 MTAP-deleted cell line; experiment: Viability assay, MTAP-deleted cell line; format: cell-based; details: Homo sapiens, read-out: HAP1 MTAP deleted viability
Source text: Table 1 additionally indicates IC50 values in a viability assay for the MTAP-deleted cell line (column 10), indicating the effect of treatment with compound on cell survival.

[7] = read-out: HAP1 MTAP deleted IC50
[8] = HAP1, viability assay, MTAP-deleted cell line
[9] = IC50 ratio HAP1 MTAP-intact / HAP1 MTAP-deleted
[10] = read-out: No Cofactor/ rel IC50
[11] = read-out: HAP 1 MTAP deleted IC50
[12] = HAP1, viability assay, HAP1 MTAP-deleted

T1 sequence (O14744 whole entry): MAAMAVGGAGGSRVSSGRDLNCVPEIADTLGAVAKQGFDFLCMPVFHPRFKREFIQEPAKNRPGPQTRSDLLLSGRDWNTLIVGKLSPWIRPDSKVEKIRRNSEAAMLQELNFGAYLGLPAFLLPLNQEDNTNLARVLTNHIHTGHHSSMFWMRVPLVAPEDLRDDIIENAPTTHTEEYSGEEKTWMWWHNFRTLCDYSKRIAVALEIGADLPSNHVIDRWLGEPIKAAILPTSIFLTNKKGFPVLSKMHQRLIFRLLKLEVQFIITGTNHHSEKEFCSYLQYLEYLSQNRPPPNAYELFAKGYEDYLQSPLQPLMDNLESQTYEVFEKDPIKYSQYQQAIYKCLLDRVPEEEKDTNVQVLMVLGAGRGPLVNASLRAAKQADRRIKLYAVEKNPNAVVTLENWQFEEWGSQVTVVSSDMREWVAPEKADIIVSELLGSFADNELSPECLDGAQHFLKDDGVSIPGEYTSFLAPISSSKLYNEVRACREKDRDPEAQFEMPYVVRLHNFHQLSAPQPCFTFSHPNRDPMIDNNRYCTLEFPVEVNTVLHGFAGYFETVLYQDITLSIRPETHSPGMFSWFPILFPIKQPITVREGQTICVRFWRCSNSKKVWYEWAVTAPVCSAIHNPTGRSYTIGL
T1 sequence (Q9BQA1 whole entry partner): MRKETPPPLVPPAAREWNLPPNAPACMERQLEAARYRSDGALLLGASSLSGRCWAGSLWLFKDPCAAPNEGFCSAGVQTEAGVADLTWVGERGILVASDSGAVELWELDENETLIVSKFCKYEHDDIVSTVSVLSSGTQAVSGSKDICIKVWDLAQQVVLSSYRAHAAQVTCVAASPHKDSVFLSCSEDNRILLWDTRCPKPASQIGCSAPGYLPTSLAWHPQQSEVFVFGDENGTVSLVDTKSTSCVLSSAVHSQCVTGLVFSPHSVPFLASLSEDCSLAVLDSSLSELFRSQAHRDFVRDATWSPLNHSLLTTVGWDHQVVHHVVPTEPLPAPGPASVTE

Row | IC50 (PRMT5 [1]) [nM] | IC50 (PRMT5 [2]; read-out: No Cofactor/rel IC50) [nM] | IC50 (PRMT5 [3]) [nM] | IC50 [4] [nM] | IC50 [5, 7] [nM] | IC50 (PRMT5 [2]; [10]) [nM] | IC50 [5, 11] [nM] | Compound | MTAP intact/deleted ratio ([5]; IC50 ratio HAP1 MTAP-intact vs HAP1 MTAP-deleted) | IC50 [6, 8] [nM] | MTAP intact/deleted ratio [5, 9] | IC50 ([6]; HAP1, viability, HAP1 MTAP-deleted cell line) [nM] | IC50 [6, 12] [nM]
1 | 50 to 500 | < 50 | < 50 | < 100 | < 100 | – | – | Cc1cc(NC(=O)C(=O)N2C[C@@H](C)CC[C@@H]2c2ccc3sc(-c4cnn(C)c4)nc3c2)cnc1N (racemic) [Compound 1104, rac-N-(6-amino-5-methylpyridin-3-yl)-2-((2R,5S)-5-methyl-2-(2-(1-methyl-1H-pyrazol-4-yl)benzo[d]thiazol-5-yl)piperidin-1-yl)-2-oxoacetamide] | B (an IC50 ratio greater than or equal to 3 fold but lower than 10 fold) | < 1000 | – | – | –
2 | 50 to 500 | 50 to 500 | < 50 | > 1000 | 100 to 1000 | – | – | C[C@@H]1CC[C@@H](c2ccc(OC(F)F)cc2)N(C(=O)C(=O)Nc2cncc(C(N)=O)c2)C1 (racemic) [Compound 271, rac-5-{2-[(2R,5S)-2-[4-(Difluoromethoxy)phenyl]-5-methylpiperidin-1-yl]-2-oxoacetamido}pyridine-3-carboxamide] | – | 1000 to 10000 | A (an IC50 ratio greater than or equal to 10 fold) | – | –
3 | > 500 | – | > 500 | > 1000 | – | > 500 | > 1000 | CO[C@@H]1C[C@@H](c2ccc3scnc3c2)N(C(=O)C(=O)Nc2cnc(N)c(C3CC3)c2)C[C@@H]1C (single isomer, unassigned) [Compound 1241] | – | – | – | 1000 to 10000 | –
4 | 50 to 500 | < 50 | < 50 | > 1000 | < 100 | – | – | COc1ncc(NC(=O)C(=O)N2C[C@@H](C)CC[C@@H]2c2ccc3sc(C)nc3c2)cc1C(N)=O (single isomer, unassigned) [Compound 797] | – | – | A (an IC50 ratio greater than or equal to 10 fold) | – | < 1000
5 | > 500 | > 500 | > 500 | > 1000 | > 1000 | – | – | C[C@H]1CC[C@H](c2ccc(-c3nccs3)cc2)N(C(=O)C(=O)Nc2cncc(C(N)=O)c2)C1 (single isomer, unassigned) [Compound 772] | – | – | B (an IC50 ratio greater than or equal to 3 fold but lower than 10 fold) | – | > 10000
6 | 50 to 500 | < 50 | < 50 | > 1000 | < 100 | – | – | COc1ncc(NC(=O)C(=O)N2C[C@H](C)CC[C@H]2c2ccc3[nH]cnc3c2)cc1C(N)=O (single isomer, unassigned) [Compound 794] | – | – | A (an IC50 ratio greater than or equal to 10 fold) | – | < 1000
7 | 50 to 500 | 50 to 500 | 50 to 500 | > 1000 | 100 to 1000 | – | – | C[C@@H]1CC[C@@H](c2ccc(-c3ccn[nH]3)cc2)N(C(=O)C(=O)Nc2cncc(C(N)=O)c2)C1 (racemic) [Compound 524, 5-[[2-[(2S,5R)-5-methyl-2-[4-(1H-pyrazol-5-yl)phenyl]-1-piperidyl]-2-oxo-acetyl]amino]pyridine-3-carboxamide] | – | 1000 to 10000 | A (an IC50 ratio greater than or equal to 10 fold) | – | –
8 | 50 to 500 | – | < 50 | > 1000 | – | 50 to 500 | > 1000 | C[C@@H]1CC[C@@H](c2ccccc2)N(C(=O)C(=O)Nc2cncc(C(N)=O)c2)[C@@H]1C (racemic) [Compound 154, rac-5-[[2-[(2R,3R,6S)-2,3-dimethyl-6-phenyl-1-piperidyl]-2-oxo-acetyl]amino]pyridine-3-carboxamide] | – | > 10000 | B (an IC50 ratio greater than or equal to 3 fold but lower than 10 fold) | – | –

— patent US11999727B2 (Tango Therapeutics, Inc., priority 2020, dated 2024)
